The values below come from ChEMBL document CHEMBL1124141, “(+/-)-9-Amino-1,2,3,4-tetrahydroacridin-1-ol. A potential Alzheimer's disease therapeutic of low toxicity” (J Med Chem, 1988).

The target of data set [1] is T1, Acetylcholinesterase (Rattus norvegicus, UniProt P37136).
T1 sequence (P37136 whole entry): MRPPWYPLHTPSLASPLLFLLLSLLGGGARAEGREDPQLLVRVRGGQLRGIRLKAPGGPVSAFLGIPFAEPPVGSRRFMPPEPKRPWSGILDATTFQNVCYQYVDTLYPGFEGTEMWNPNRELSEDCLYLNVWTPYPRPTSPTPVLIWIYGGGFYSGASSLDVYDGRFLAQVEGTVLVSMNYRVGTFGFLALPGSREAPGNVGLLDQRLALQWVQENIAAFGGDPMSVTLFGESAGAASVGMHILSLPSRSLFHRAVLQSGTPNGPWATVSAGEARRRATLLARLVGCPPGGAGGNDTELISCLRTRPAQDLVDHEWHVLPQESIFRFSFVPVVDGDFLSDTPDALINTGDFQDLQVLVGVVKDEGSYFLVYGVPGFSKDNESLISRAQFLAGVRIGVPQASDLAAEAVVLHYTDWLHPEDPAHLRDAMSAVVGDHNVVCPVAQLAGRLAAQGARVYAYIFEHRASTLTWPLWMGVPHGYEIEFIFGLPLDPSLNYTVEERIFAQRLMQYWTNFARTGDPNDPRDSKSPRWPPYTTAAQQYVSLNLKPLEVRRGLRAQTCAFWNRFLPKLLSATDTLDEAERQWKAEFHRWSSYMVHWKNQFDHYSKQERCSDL
The experiment in a line: In vitro inhibitory activity against acetylcholinesterase using rat striatal preparations.

The species named for data set [2] is Mus musculus. The conditions noted are these: dose 0.63 mg/kg; route subcutaneous.
Description: Reversal of scopolamine-induced memory impairment in mice, after subcutaneous administration of 0.63 mg/kg
A short description of data set [3]: Acute toxicity in mice was determined after oral administration. The conditions noted are these: mouse, in vivo. Type of data set: organism-based.

As a reminder, the IC50 is the concentration needed to halve the response being measured. What is called LD50 is the dose at which mortality reaches 50%. As to `Nc1c2c(nc3ccccc13)CCCC2O.O=C(O)/C=C\C(=O)O` (stereo not drawn) [VELNACRINE MALEATE], half-maximal inhibition in data set [1] (IC50) required 4.8 µM. Also, the Reversal in data set [2] is listed as 33%. Besides, in data set [3], the LD50 came to 136 mg/kg.
